Experimental data taken from patent US20150051203A1, “TRIAZOLE DERIVATIVES AS HSP90 INHIBITORS” (Synta Pharmaceuticals Corp., priority 2012, published 2015).
Where two headings read alike, the source gives them in different places.

Experiments:
[1] = Exploratory small molecule PK study in rats; format: in vivo, male Sprague-Dawley rats; design: AUClast: unit not given here; conditions: rat; for half-life: male, Sprague-Dawley, plasma, read-out: T½ (converted); for F: PO 25 mg/Kg D5W vs IV 5 mg/Kg DPD
Experimental: PK studies were conducted in male Sprague-Dawley rats. One group was dosed by IV (n=2) and another group was dosed orally (n=3). Blood samples were collected in lithium heparin coated microfuge tubes at 5 (IV only), 15, 30 min, 1, 3, 4, 6, 8, 24 h post dose. Samples were then centrifuged under refrigerated conditions and plasma was collected for analysis.
A solvent-based protein precipitation procedure was used to measure the concentration of each compound in plasma and/or whole blood. Samples were analyzed with an Agilent 1100 HPLC (Santa Clara, Calif.) interfaced to an API 4000 tandem mass spectrometer (Applied Biosystems, Foster City, Calif.) using a Synergy, Hydro-RP column (4 μm, 2×50 mm; Phenomenex, Torrance, Calif.) at a flow rate of 0.5 ml/min. Mobile phase consisted of 10 mM ammonium acetate in water (A) and 10 mM ammonium acetate in 95/5 (v/v) methanol/water (B). Total run time was 5 min with the gradient elution. […] All standard curves were fit to a quadratic equation with a weighing factor of 1/(concentration)^2 to calculate compound concentrations.

[2] = tested on: Her2; assay: Fluorescent staining of Her2 on the surface of cells, FACS (BT474); format: cell-based, Human
Experimental: (§1) After treatment with a compound of the invention, cells are washed twice with 1×PBS/1% FBS, and then stained with anti-Her2-FITC (#340553, BD) for 30 min at 4° C. Cells are then washed three times in FACS buffer before the fixation in 0.5 ml 1% paraformadehyde. Data is acquired on a FACSCalibur system. Isotype-matched controls are used to establish the non-specific staining of samples and to set the fluorescent markers. A total 10,000 events are recorded from each sample. Data are analyzed by using CellQuest software (BD Biosciences).
as §1, with “paraformadehydrede.” for “paraformadehyde.”

[3] = tested on: c-Kit; assay: c-Kit degradation in HEL92.1.7 cells (FACS-based degradation assay); format: cell-based; conditions: treated about 18 h
Experimental: Two leukemia cell lines, HEL92.1.7 and Kasumi-1, were used for testing c-Kit degradation induced by Hsp90 inhibitors of the invention. The cells (3×10^5 per well) were treated with 17AAG (0.5 μM), or a compound of the invention for about 18 h. The cells were collected and centrifuged (SORVALL RT 6000D) at 1200 rpm for 5 min. The supernatants were discarded, and the cells were washed one time with 1×PBS. After centrifugation the cells were stained with FITC conjugated c-Kit antibody (MBL International, Cat# K0105-4) in […] 1×PBS at 4° C. for 1 h. The samples were read and analyzed with FACSCalibur flow cytometer (Becton Dicknson).
c-Kit, a tyrosine kinase receptor and one of the Hsp90 client proteins, was selected and used in a FACS-based degradation assay.

[4] = tested on: Her2; assay: Her2 degradation in BT-474 cells, ICW (LI-COR Odyssey imaging); format: cell-based, Human; conditions: BT474 cells, 24 hours
Experimental: All experiments were performed on day 1 after cell passage.
BT-474 cells were plated in the interior 60 wells of a 96 well black clear bottom plate (20,000 cells/well) in DMEM medium, with DMEM media in the surrounding 36 wells, and incubated at 37° C. with 5% CO2 overnight. On the second day, concentration response curve source plates were produced (10 point, 3-fold dilution of compounds in DMSO) followed by a 1:30 dilution in an intermediate dilution plate containing DMEM. Compound was transferred from the intermediate plate to the cell plate at a dilution of 1:10. The cells were incubated at 37° C. with 5% CO2 for 24 hours.
Cells were fixed in 4% phosphate buffered paraformaldehyde for 30 minutes at room temperature and then permeabilized by washing five times with 0.1% Triton X-100 in PBS for 5 minutes at room temperature on a shaker. Cells were blocked with Odyssey Blocking Buffer (LI-COR, #927-40000) on a shaker at room temperature for 1.5 hours followed by incubation with Her2 antibody (CST, #2165) diluted 1:400 in blocking buffer overnight on a shaker at 4° C. Cells were washed five times with 0.1% Tween-20 in PBS for 5 minutes at room temperature on a shaker and incubated with fluorescently labeled secondary antibody (LI-COR, #926-32211) diluted 1:1000 in blocking buffer, and DRAQ5 nuclear stain (Biostatus Limited, #DRAQ5) diluted 1:10,000, at room temperature on a shaker for 1 hour. Cells were washed 5 times with 0.1% Tween-20 in PBS for 5 minutes at room temperature on a shaker and imaged on a LI-COR Odyssey imaging station. The raw data was normalized to DRAQ5 and the Her2 EC50 were calculated using XLfit.

CCNC(=O)c1nnc(-c2cc3c(C(C)C)n[nH]c3cc2O)n1-c1ccc(CN2CCOCC2)cc1 [Compound 55, N-ethyl-5-(6-hydroxy-3-isopropyl-1H-indazol-5-yl)-4-(4-(morpholinomethyl)phenyl)-4H-1,2,4-triazole-3-carboxamide]
half-life ([1]; IV 5 mg/Kg, DPD): 1.7 h
half-life ([1]; PO 25 mg/Kg, D5W): 4.3 h
AUClast ([1]; IV 5 mg/Kg, DPD): 2.52
F [1]: 197%
AUClast ([1]; PO 25 mg/Kg, D5W): 24.4

CN1CCN(c2ccc(-n3c(O)nnc3-c3cc4c(C5CCC5)n[nH]c4cc3O)cc2)CC1 [Compound 70, 3-cyclobutyl-5-(5-hydroxy-4-(4-(4-methylpiperazin-1-yl)phenyl)-4H-1,2,4-triazol-3-yl)-1H-indazol-6-ol]
EC50 [2]: > 1000 nM
IC50 [3]: > 1000 nM
EC50 [4]: 300 nM

Oc1cc2[nH]nc(C3CCCC3)c2cc1-c1nnc(O)n1-c1ccc(N2CCOCC2)cc1 [Compound 71, 3-cyclopentyl-5-(5-hydroxy-4-(4-morpholinophenyl)-4H-1,2,4-triazol-3-yl)-1H-indazol-6-ol]
EC50 [2]: 119 nM
IC50 [3]: 106 nM
EC50 [4]: 30 nM

CCc1n[nH]c2cc(O)c(-c3nnc(O)n3-c3ccc(N4CCOCC4)nc3)cc12 [Compound 33, 3-ethyl-5-(5-hydroxy-4-(6-morpholinopyridin-3-yl)-4H-1,2,4-triazol-3-yl)-1H-indazol-6-ol]
IC50 [3]: 4000 nM

CCc1n[nH]c2cc(O)c(-c3nnc(O)n3-c3ccc4c(ccn4C)c3)cc12 [Compound 29, 3-ethyl-5-(5-hydroxy-4-(1-methyl-1H-indol-5-yl)-4H-1,2,4-triazol-3-yl)-1H-indazol-6-ol]
IC50 [3]: 200 nM

CCc1n[nH]c2cc(O)c(-c3nnc(O)n3-c3ccc(N4CCOCC4)cc3)cc12 [Compound 32, 3-ethyl-5-(5-hydroxy-4-(4-morpholinophenyl)-4H-1,2,4-triazol-3-yl)-1H-indazol-6-ol]
IC50 [3]: 400 nM

CC(C)c1n[nH]c2cc(O)c(-c3nnc(C(N)=O)n3-c3ccc(N4CCOCC4)cc3)cc12 [Compound 9, 5-(6-hydroxy-3-isopropyl-1H-indazol-5-yl)-4-(4-morpholinophenyl)-4H-1,2,4-triazole-3-carboxamide]
IC50 [3]: 40 nM

Cc1n[nH]c2cc(O)c(-c3nnc(C(N)=O)n3-c3ccc4c(c3)OCO4)cc12 [Compound 4, 4-(benzo[d][1,3]dioxol-5-yl)-5-(6-hydroxy-3-methyl-1H-indazol-5-yl)-4H-1,2,4-triazole-3-carboxamide]
IC50 [3]: 5000 nM

Oc1cc2[nH]nc(C3CCCC3)c2cc1-c1nnc(O)n1-c1ccc(CN2CCOCC2)cc1 [Compound 78, 3-cyclopentyl-5-(5-hydroxy-4-(4-(morpholinomethyl)phenyl)-4H-1,2,4-triazol-3-yl)-1H-indazol-6-ol]
half-life ([1]; IV 5 mg/Kg, DPD): 1.5 h
half-life ([1]; PO 25 mg/Kg, D5W): 4.2 h
AUClast ([1]; IV 5 mg/Kg, DPD): 3.96
F [1]: 13%
AUClast ([1]; PO 25 mg/Kg, D5W): 2.55

Cc1n[nH]c2cc(O)c(-c3nnc(C(=O)NC4CC4)n3-c3ccc(N4CCOCC4)cc3)cc12 [Compound 5, N-cyclopropyl-5-(6-hydroxy-3-methyl-1H-indazol-5-yl)-4-(4-morpholinophenyl)-4H-1,2,4-triazole-3-carboxamide]
IC50 [3]: 100 nM

CCc1n[nH]c2cc(O)c(-c3nnc(C(N)=O)n3-c3ccc(N4CCOCC4)cc3)cc12 [Compound 6, 5-(3-ethyl-6-hydroxy-1H-indazol-5-yl)-4-(4-morpholinophenyl)-4H-1,2,4-triazole-3-carboxamide]
IC50 [3]: 20 nM

CC(C)c1n[nH]c2cc(O)c(-c3nnc(O)n3-c3ccc(N4CCN(C)CC4)cc3)cc12 [Compound 72, 5-(5-hydroxy-4-(4-(4-methylpiperazin-1-yl)phenyl)-4H-1,2,4-triazol-3-yl)-3-isopropyl-1H-indazol-6-ol]
half-life ([1]; IV 5 mg/Kg, DPD): 1.1 h
half-life ([1]; PO 25 mg/Kg, D5W): 2.1 h
AUClast ([1]; IV 5 mg/Kg, DPD): 1.69
F [1]: 7.57%
AUClast ([1]; PO 25 mg/Kg, D5W): 0.61

CCc1n[nH]c2cc(O)c(-c3nnc(SCc4cccnc4)n3-c3ccc(N4CCOCC4)cc3)cc12 [Compound 30, 3-ethyl-5-(4-(4-morpholinophenyl)-5-(pyridin-3-ylmethylthio)-4H-1,2,4-triazol-3-yl)-1H-indazol-6-ol]
IC50 [3]: 300 nM

CCc1n[nH]c2cc(O)c(-c3nnc(O)n3-c3cccc(N(C)C)c3)cc12 [Compound 31, 5-(4-(3-(dimethylamino)phenyl)-5-hydroxy-4H-1,2,4-triazol-3-yl)-3-ethyl-1H-indazol-6-ol]
IC50 [3]: > 20000 nM

CCCc1n[nH]c2cc(O)c(-c3nnc(C(=O)NC4CC4)n3-c3ccc(N4CCOCC4)cc3)cc12 [Compound 8, N-cyclopropyl-5-(6-hydroxy-3-propyl-1H-indazol-5-yl)-4-(4-morpholinophenyl)-4H-1,2,4-triazole-3-carboxamide]
IC50 [3]: 36 nM

Cc1n[nH]c2cc(O)c(-c3nnc(C(N)=O)n3-c3ccc(N4CCOCC4)cc3)cc12 [Compound 2, 5-(6-hydroxy-3-methyl-1H-indazol-5-yl)-4-(4-morpholinophenyl)-4H-1,2,4-triazole-3-carboxamide]
IC50 [3]: 500 nM

CCc1n[nH]c2cc(O)c(-c3nnc(O)n3-c3ccc4c(c3)CC(N3CCOCC3)C4)cc12 (stereo not shown) [Compound 35, 3-ethyl-5-(5-hydroxy-4-(2-morpholino-2,3-dihydro-1H-inden-5-yl)-4H-1,2,4-triazol-3-yl)-1H-indazol-6-ol]
IC50 [3]: > 20000 nM

CC(C)c1n[nH]c2cc(O)c(-c3nnc(C(=O)NC4CC4)n3-c3ccc(N4CCOCC4)cc3)cc12 [Compound 10, N-cyclopropyl-5-(6-hydroxy-3-isopropyl-1H-indazol-5-yl)-4-(4-morpholinophenyl)-4H-1,2,4-triazole-3-carboxamide]
IC50 [3]: 7 nM

CC(C)c1cc(-c2n[nH]c(=O)n2-c2ccc3c(ccn3C)c2)c(O)cc1O [ganetespib, reference compound]
EC50 [2]: 18 nM
IC50 [3]: 4 nM
EC50 [4]: 20 nM
